Here are results for six compounds from ChEMBL document CHEMBL1201862, “PubChem BioAssay data set” (2004).

Test systems include DLD-1; DMS-114; DMS-273; HOP-18; LXFL 529; M19-MEL; RXF 631; SNB-78; XF498.
What all share (experiment): NCI anticancer screen, dose series, 48 h

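A five-concentration, 48-hour dose response in 96-well plates underlies each endpoint, interpolated linearly between surrounding concentrations. GI50 marks 50% less growth.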 Calls of active or inactive are those of the source. Cut-off read from the data, not from the text of the source: active = GI50 up to about 1.1 µM and inactive = higher. Where only a bound is given, the exact number is not on record here.

For the compound `CNC(=O)OC1/C(C)=C\C(C)C(O)C(OC)CC(C)CC2=C(OC)C(=O)C=C(C2=O)N(C)C(=O)/C(C)=C/C=C\C1OC` (centres undefined), the GI50 was 1.96 µM (inactive) in the assay with DLD-1; 4.99 µM (inactive) with DMS-114; 3.31 µM (inactive) in the assay with DMS-273; 9.27 µM (inactive) in the assay with HOP-18; 4.86 µM (inactive) with LXFL 529; 5 µM (inactive) in the assay on M19-MEL. Also, the GI50 with RXF 631 is 15.1 µM (inactive); in the assay on SNB-78, 7.21 µM (inactive); in the assay on XF498, 3.72 µM (inactive).
Consider `COc1cc2c(cc1OC)[C@@H](Nc1ccc(F)cc1)C1COC(=O)[C@@H]1C2c1cc(OC)c(O)c(OC)c1` (some centres undefined), for which the GI50 is 3.13 µM (inactive) in the assay on DLD-1; 1.15 µM (inactive) in the assay with DMS-114; 0.0832 µM (active) in the assay on DMS-273; 5.35 µM (inactive) in the assay on HOP-18; 19.6 µM (inactive) in the assay with LXFL 529; 5.08 µM (inactive) with M19-MEL. Moreover, the values for the GI50 in the assay with RXF 631, in the assay with SNB-78 and in the assay with XF498 were 1.73 µM (inactive), > 20.4 µM (inactive) and 3 µM (inactive), respectively.
In the case of `Nc1nc2ncn(CC(O)COC(=O)c3ccccc3)c2c(=O)[nH]1` (centres undefined), the GI50 in the assay with DLD-1, in the assay on DMS-114, in the assay on DMS-273, in the assay with HOP-18, in the assay on LXFL 529 and in the assay with M19-MEL was > 100 µM (inactive) in each case. In addition, the values for the GI50 in the assay with RXF 631, with SNB-78 and with XF498 were > 100 µM (inactive), 48.3 µM (inactive) and > 100 µM (inactive), respectively.
On to `COC(=O)c1cc2c3ccccc3n(C(C)=O)c2cn1`, for which the GI50 with DLD-1 was > 100 µM (inactive); in the assay with DMS-114 it was > 100 µM (inactive); in the assay with DMS-273 it was > 100 µM (inactive); in the assay on HOP-18 it was 44.9 µM (inactive); in the assay on LXFL 529, 66.4 µM (inactive); in the assay on M19-MEL, > 100 µM (inactive). Also, the values for the GI50 with RXF 631, in the assay on SNB-78 and in the assay on XF498 were 77.6 µM (inactive), > 100 µM (inactive) and 38.6 µM (inactive), respectively.
As to `CC1=CC(=O)CCC2(C)C1CC[C@@H]2OC=O` (some centres undefined), the GI50 in the assay on DLD-1, in the assay on DMS-114, in the assay on DMS-273, with HOP-18, in the assay with LXFL 529 and in the assay with M19-MEL was > 100 µM (inactive) throughout. Besides, the GI50 with RXF 631, with SNB-78 and in the assay on XF498 was > 100 µM (inactive) throughout.
Consider `N#CC(C(=O)/C(=N/Nc1nc(S)nn1N)C(C#N)c1ccccc1)c1ccccc1` (centres undefined), for which the GI50 is > 100 µM (inactive) in the assay on DLD-1; > 100 µM (inactive) in the assay with DMS-114; > 100 µM (inactive) with DMS-273; 0.403 µM (active) in the assay on HOP-18; > 100 µM (inactive) with LXFL 529; > 100 µM (inactive) in the assay on M19-MEL. In addition, the GI50 with RXF 631, in the assay with SNB-78 and in the assay on XF498 was > 100 µM (inactive) throughout.
